As a reminder, the viability is a read-out of living cells in per cent, often relative to untreated cells.

This passage reports viability results from publication PMC11995724, “Antibiotic target discovery by integrated phenotypic and activity-based profiling of electrophilic fragments” (Cell chemical biology, 2025).

Structures are written as SMILES. Structures can show the parent of a compound that is named as a salt.

A short description of this series: in vitro. The conditions noted are these: human, hek293t cells.
`N#CC(=Cc1ccc(OC(F)F)cc1)C(=O)N1CCCC1` [8-L22, 3-[4-(difluoromethoxy)phenyl]-2-(pyrrolidine-1-carbonyl)prop-2-enenitrile]: the viability at 48 h, 25 µM worked out at 105%.

For the molecule `O=C(NCc1ccco1)C1CCCN1C(=O)CCl` (stereo not shown) [5-N05, 1-(2-chloroacetyl)-N-[(furan-2-yl)methyl]pyrrolidine-2-carboxamide], the viability at 48 h, 25 µM was determined as 1.39%.

Take `CC(Cl)C(=O)NC1(c2ccccc2)CCOCC1` (stereo not shown) [7-A11, 2-chloro-N-(4-phenyloxan-4-yl)propanamide]: the viability at 48 h, 25 µM worked out at 108%.

`Cc1cccc(NC(=O)C(C#N)=Cc2cnc3ccc(C#N)cn23)c1` [9-O18, 2-cyano-3-{6-cyanoimidazo[1,2-a]pyridin-3-yl}-N-(3-methylphenyl)prop-2-enamide]: the viability at 48 h, 25 µM worked out at 132%.

On to `Cc1nnnn1CCNC(=O)C(C)Cl` (stereo not shown) [7-A19, 2-chloro-N-[2-(5-methyl-1H-1,2,3,4-tetrazol-1-yl)ethyl]propanamide], for which the viability at 48 h, 25 µM turned out to be 79%.

On to `CC(Cl)C(=O)N(C)c1ccccc1` (stereo not shown) [5-D06, 2-chloro-N-methyl-N-phenylpropanamide], for which the viability at 48 h, 25 µM was determined as 102%.

For the molecule `C=CC(=O)N1CCN(C(=O)c2ccc(OC)c(OC)c2OC)CC1` [1-H12, 1-[4-(2,3,4-trimethoxybenzoyl)piperazin-1-yl]prop-2-en-1-one], the viability at 48 h, 25 µM was determined as 80%.

Turning to `C=CC(=O)N[C@@H](C)c1ccccc1OC` [1-K06, N-[(1S)-1-(2-methoxyphenyl)ethyl]prop-2-enamide], the viability at 48 h, 25 µM came out at 84.3%.

`O=C(CCl)N1CCCCc2ccc([N+](=O)[O-])cc21` [5-I18, 2-chloro-1-(8-nitro-2,3,4,5-tetrahydro-1H-1-benzazepin-1-yl)ethan-1-one]: the viability at 48 h, 25 µM worked out at 1.56%.

As to `C=CC(=O)NCC(=C)c1ccccc1` [2-B09, N-(2-phenylprop-2-en-1-yl)prop-2-enamide], the viability at 48 h, 25 µM came to 57%.

For the molecule `Cc1cc(C=C(C#N)C(=O)Nc2nccs2)cc(C)c1O` [9-D13, 2-cyano-3-(4-hydroxy-3,5-dimethylphenyl)-N-(1,3-thiazol-2-yl)prop-2-enamide], the viability at 48 h, 25 µM came out at 106%.

With `N#CC(=Cc1ccccc1)C(=O)Nc1nnn[nH]1` [8-J14, 2-cyano-3-phenyl-N-(1H-1,2,3,4-tetrazol-5-yl)prop-2-enamide], the viability at 48 h, 25 µM was found to be 111%.

As to `C=CC(=O)NC(C)(C)c1noc(CCC)n1` [1-N10, N-[2-(5-propyl-1,2,4-oxadiazol-3-yl)propan-2-yl]prop-2-enamide], the viability at 48 h, 25 µM turned out to be 91.9%.

With `C=CC(=O)NC(CO)c1cccc(OC)c1` (stereo not shown) [2-E22, N-[2-hydroxy-1-(3-methoxyphenyl)ethyl]prop-2-enamide], the viability at 48 h, 25 µM stood at 122%.

For `CC(Cl)C(=O)NC(C)c1ncn(C)n1` (stereo not shown) [6-P13, 2-chloro-N-[1-(1-methyl-1H-1,2,4-triazol-3-yl)ethyl]propanamide], the viability at 48 h, 25 µM turned out to be 112%.

For the molecule `CC(Cl)C(=O)N1CCN(c2nc3ccccc3o2)C(C)C1` (stereo not shown) [7-K22, 1-[4-(1,3-benzoxazol-2-yl)-3-methylpiperazin-1-yl]-2-chloropropan-1-one], the viability at 48 h, 25 µM was 76.1%.

Consider `N#CC(=Cc1ccc(Cl)c([N+](=O)[O-])c1)C(=O)NCc1ccco1` [9-E15, 3-(4-chloro-3-nitrophenyl)-2-cyano-N-[(furan-2-yl)methyl]prop-2-enamide], for which the viability at 48 h, 25 µM was 6.64%.

`C=CC(=O)N1CCC(C(=O)N2CCC(Cc3ncon3)CC2)CC1` [2-J06, 1-(4-{4-[(1,2,4-oxadiazol-3-yl)methyl]piperidine-1-carbonyl}piperidin-1-yl)prop-2-en-1-one]: the viability at 48 h, 25 µM stood at 74.2%.

In the case of `CCC(C)c1ccccc1NC(=O)CCl` (stereo not shown) [6-K11, N-[2-(butan-2-yl)phenyl]-2-chloroacetamide], the viability at 48 h, 25 µM turned out to be 0.743%.

On to `CC(Cl)C(=O)NCCc1cccs1` (stereo not shown) [4-D14, 2-chloro-N-[2-(thiophen-2-yl)ethyl]propanamide], for which the viability at 48 h, 25 µM was 111%.

With `C=CC(=O)Nc1ccc(C2=NNC(=O)CO2)cc1` [3-L18, N-[4-(5-oxo-5,6-dihydro-4H-1,3,4-oxadiazin-2-yl)phenyl]prop-2-enamide], the viability at 48 h, 25 µM worked out at 67.1%.

With `Cc1cccc(NC(=O)C(C#N)=Cc2cc(C)c(C)cc2C)c1` [8-C18, 2-cyano-N-(3-methylphenyl)-3-(2,4,5-trimethylphenyl)prop-2-enamide], the viability at 48 h, 25 µM was 92.9%.

As for `O=C(CCl)Nc1ccccn1` [5-B14, 2-chloro-N-(pyridin-2-yl)acetamide hydrochloride], the viability at 48 h, 25 µM stood at 73.1%.

On to `C=CC(=O)NC1CCN(S(N)(=O)=O)CC1` [1-K18, N-(1-sulfamoylpiperidin-4-yl)prop-2-enamide], for which the viability at 48 h, 25 µM was 93.7%.

With `CNc1ccc(C=C(C#N)C(=O)Nc2ccccc2F)cc1[N+](=O)[O-]` [8-N09, 2-cyano-N-(2-fluorophenyl)-3-[4-(methylamino)-3-nitrophenyl]prop-2-enamide], the viability at 48 h, 25 µM turned out to be 110%.

As for `CC(Cl)C(=O)NC1CC(C)N(c2ccccc2)C1=O` (stereo not shown) [5-B19, 2-chloro-N-(5-methyl-2-oxo-1-phenylpyrrolidin-3-yl)propanamide], the viability at 48 h, 25 µM came to 112%.

Turning to `Cc1noc(C)c1C(=O)CCl` [10-K13, 2-chloro-1-(3,5-dimethyl-1,2-oxazol-4-yl)ethan-1-one], the viability at 48 h, 25 µM came out at 56.9%.

`C=CC(=O)NCc1ccnc(N2CCSCC2)c1` [1-I14, N-{[2-(thiomorpholin-4-yl)pyridin-4-yl]methyl}prop-2-enamide]: the viability at 48 h, 25 µM worked out at 22.1%.

On to `O=C(CCl)c1ccncc1F` [10-I09, 2-chloro-1-(3-fluoropyridin-4-yl)ethan-1-one hydrochloride], for which the viability at 48 h, 25 µM was determined as 85%.

Take `COc1cccc(NC(=O)C(C#N)=Cc2ccc(O)cc2)c1` [8-O17, 2-cyano-3-(4-hydroxyphenyl)-N-(3-methoxyphenyl)prop-2-enamide]: the viability at 48 h, 25 µM came to 82.7%.

For `O=C(CCl)Cc1cccc(F)c1F` [10-K17, 1-chloro-3-(2,3-difluorophenyl)propan-2-one], the viability at 48 h, 25 µM was 33.7%.

In the case of `CN(C(=O)CCl)C1CCCCC1` [5-N07, 2-chloro-N-cyclohexyl-N-methylacetamide], the viability at 48 h, 25 µM turned out to be 0.964%.

For the molecule `C=CC(=O)NCc1cc(Cl)c2c(c1)OCO2` [2-F15, N-[(7-chloro-1,3-dioxaindan-5-yl)methyl]prop-2-enamide], the viability at 48 h, 25 µM was found to be 50.9%.

Consider `CC(=O)NCc1ccc(C(=O)CCl)o1` [10-I10, N-{[5-(2-chloroacetyl)furan-2-yl]methyl}acetamide], for which the viability at 48 h, 25 µM was 86.8%.

Regarding `O=C(CCl)NC(CC1CC1)c1ccc(Cl)cn1` (stereo not shown) [6-F19, 2-chloro-N-[1-(5-chloropyridin-2-yl)-2-cyclopropylethyl]acetamide], the viability at 48 h, 25 µM stood at 1.46%.

As to `CCN(c1ccc(C(=O)CCl)cc1)S(C)(=O)=O` [10-F04, N-[4-(2-chloroacetyl)phenyl]-N-ethylmethanesulfonamide], the viability at 48 h, 25 µM was 22.5%.

As to `N#CC(=Cc1cccc(Cl)c1Cl)C(=O)NCc1ccco1` [8-P04, 2-cyano-3-(2,3-dichlorophenyl)-N-[(furan-2-yl)methyl]prop-2-enamide], the viability at 48 h, 25 µM amounted to 52.4%.

Turning to `C=CC(=O)NCc1cc(-c2ccco2)on1` [1-A21, N-{[5-(furan-2-yl)-1,2-oxazol-3-yl]methyl}prop-2-enamide], the viability at 48 h, 25 µM was found to be 166%.

In the case of `Cc1ccc(-c2cc(NC(=O)CCl)n(-c3ccccc3)n2)cc1` [4-C06, 2-chloro-N-[3-(4-methylphenyl)-1-phenyl-1H-pyrazol-5-yl]acetamide], the viability at 48 h, 25 µM was -0.283%.

Take `N#CC(=Cc1cnn(-c2ccc(Cl)cc2)c1)C(=O)NC1CCCCC1` [8-A08, 3-[1-(4-chlorophenyl)-1H-pyrazol-4-yl]-2-cyano-N-cyclohexylprop-2-enamide]: the viability at 48 h, 25 µM came to 60.6%.

As for `O=C1C=CC(=O)N1c1ccccc1Sc1ccc(Cl)cc1` [10-A03, 1-{2-[(4-chlorophenyl)sulfanyl]phenyl}-2,5-dihydro-1H-pyrrole-2,5-dione], the viability at 48 h, 25 µM was 7.21%.

With `CC(NC(=O)C(C#N)=Cc1cccc(Cl)c1Cl)c1ccccc1` (stereo not shown) [9-N04, 2-cyano-3-(2,3-dichlorophenyl)-N-(1-phenylethyl)prop-2-enamide], the viability at 48 h, 25 µM was 3.94%.

For the molecule `Cc1cccc(C)c1NC(=O)C(C#N)=Cc1c(C)n[nH]c1C` [8-O20, 2-cyano-3-(3,5-dimethyl-1H-pyrazol-4-yl)-N-(2,6-dimethylphenyl)prop-2-enamide], the viability at 48 h, 25 µM came to 51.4%.

Take `Cc1ccc(NC(=O)N2CCSSCC2)c(C)c1` [10-F11, N-(2,4-dimethylphenyl)-1,2,5-dithiazepane-5-carboxamide]: the viability at 48 h, 25 µM is 102%.

With `CC(Cl)C(=O)N1CCCC(c2cnn(C)c2)C1` (stereo not shown) [7-M16, 2-chloro-1-[3-(1-methyl-1H-pyrazol-4-yl)piperidin-1-yl]propan-1-one], the viability at 48 h, 25 µM is 82%.

In the case of `O=C(CCl)NC1CCC(c2nc(-c3ccccc3)n[nH]2)CC1` (stereo not shown) [6-G19, 2-chloro-N-[4-(3-phenyl-1H-1,2,4-triazol-5-yl)cyclohexyl]acetamide], the viability at 48 h, 25 µM was determined as 39.3%.

In the case of `C=CC(=O)NC(c1ccccc1)C1CCC1` (stereo not shown) [1-G05, N-[cyclobutyl(phenyl)methyl]prop-2-enamide], the viability at 48 h, 25 µM came to 76.5%.

As for `C=CC(=O)NCCc1nnc(C)s1` [3-G22, N-[2-(5-methyl-1,3,4-thiadiazol-2-yl)ethyl]prop-2-enamide], the viability at 48 h, 25 µM stood at 78.3%.

Turning to `C=CC(=O)N1CCCC2(CCCCO2)C1` (stereo not shown) [3-O09, 1-{1-oxa-8-azaspiro[5.5]undecan-8-yl}prop-2-en-1-one], the viability at 48 h, 25 µM stood at 57%.

As for `C=CC(=O)N[C@H]1CCO[C@@H]1c1ccnn1C` [2-K19, N-[(2S,3S)-2-(1-methyl-1H-pyrazol-5-yl)oxolan-3-yl]prop-2-enamide], the viability at 48 h, 25 µM was 96.4%.

Take `Cc1ccc(NC(=O)C(C#N)=Cc2cccc(Cl)c2Cl)cc1` [8-D06, 2-cyano-3-(2,3-dichlorophenyl)-N-(4-methylphenyl)prop-2-enamide]: the viability at 48 h, 25 µM stood at 69.5%.

In the case of `C=CC(=O)NCC(C)(C)Cn1cccn1` [1-J04, N-[2,2-dimethyl-3-(1H-pyrazol-1-yl)propyl]prop-2-enamide], the viability at 48 h, 25 µM amounted to 69.4%.
